The text below walks through data of patent US4642364A, “Unsaturated eicosanoic acids” (Hoffmann-La Roche Inc., priority 1986, dated 1987).

Test [1] deals with SRS-A synthesis (Rat Peritoneal Cells). Description: Inhibition of the in vitro synthesis of SRS-A in rat peritoneal cells (ionophore A23187 challenge, guinea pig ileum bioassay). As to conditions: for inhibition at 10 µM: p values given. It is filed as cell-based, rat (male Sprague-Dawley). From the text:
To study the effect of drugs on SRS-A synthesis in rat peritoneal cells, these cells (including mast cells, monocytes, eosinophils and neutrophils)were isolated from male Sprague-Dawley rats (Charles River Laboratories) weighing 180-220 g by the lavage procedure described by Herzig, D. J. and Kusner, E. J., Journal of Pharmacology and Experimental Therapeutics, 194, 457-462 (1975) with the exception that Hanks balanced salt solution used in these experiments was adjusted to pH 6.9 with 5% (V/V) of 0.1M aqueous phosphate buffer and contained 50 m/gml sodium heparin. After removal from the peritoneal cavity of rats, the cells were subsequently isolated by centrifugation at 400×gravity for 10 minutes at 4° C. and resuspended to a concentration of about 2,000,000 cells per ml in Hanks buffer.
Samples for evaluation were prepared by adding various concentrations of test drugs to 2 ml aliquots of the resuspended cells in Hanks buffer. The 2 ml samples used for control contained 2 ml aliquots of resuspended cells in Hanks buffer without drugs. All of the above samples (2 ml final volume) were preincubated at 37° C. for 10 minutes in the presence of varying concentrations of test drug prior to challenge with 5×10^-7 M ionophore […]. This ionophore is disclosed in Burka and Flower, Br. J. Pharmacology 65: 35-41 (1979). Antibiotic A23187 was used as a probe for the study of calcium and magnesium function in biological systems. After ionophore challenge, SRS-A was synthesized in the samples by the cells for 10 minutes (at 37° C.) after which this synthesis was terminated by placing the samples in a boiling water bath for 10 minutes followed by centrifugation at 2,000×g (10 minutes) at 4° C. to remove coagulated protein and cellular debris. The SRS-A present in the resulting supernatants was quantitated by a bioassay using a guinea pig ileum as described in Orange, and Austen, Adv. Immunol. 10: 105-144 144 (1969). For this bioassay, a 1.5 cm segment of ileum was removed from animals weighing 300 to 400 g and suspended in an organ bath containing 10 ml of Tyrodes solution with 10^-6 M atropine sulfate and 10^-6 M pyrilamine maleate. The bath was maintained at 37° C. and aerated with a mixture of 95% O2 and 5%CO2. The concentration of SRS-A in the experimental samples was determined by a comparison of the isotonic contraction responses elicited by the samples with those obtained with varying amounts of an SRS-A standard solution prepared from chopped guinea pig lung as disclosed in Hitchcock, M. J. Pharmacol. Exp. Ther. 207: 630-640 (1978) and quantituted by the procedures of Orange, R. R. and Austen, K. F. Adv. Immunol. 10: 105-144 (1969) against histamine (1 unit of SRS-A being that amount which gives a contractile response similar to that of […] of histamine). In the absence of drug, the ionophore A23187-induced SRS-A synthesis varied between 40 to 50 units of SRS-A per 10^6 cells. In the presence of increasing concentrations of test drug, there was a concentration-related decrease in SRS-A synthesis. [formula] at each concentration of the various test drugs was calculated. The concentration of test drug which inhibits the synthesis of SRS-A by 50% (IC50) was determined for each test drug from a plot of the mean percent inhibition versus the log of drug concentration. The difference of units of SRS-A in the test sample used in the fraction given above was obtained by subtracting from the units of SRS-A in the control from the actual measurement of the units of SRS-A in the sample.

Test [2] addresses T1, Δ^12-lipoxygenase (Human Platelet) (Homo sapiens, UniProt P18054).
T1 construct: using human platelets as the enzyme source; from tissue; host or cells: human platelets (washed, lysed by freezing and thawing; 100,000×g supernatant, 50% ammonium sulfate precipitate)
T1 sequence (P18054 1-663): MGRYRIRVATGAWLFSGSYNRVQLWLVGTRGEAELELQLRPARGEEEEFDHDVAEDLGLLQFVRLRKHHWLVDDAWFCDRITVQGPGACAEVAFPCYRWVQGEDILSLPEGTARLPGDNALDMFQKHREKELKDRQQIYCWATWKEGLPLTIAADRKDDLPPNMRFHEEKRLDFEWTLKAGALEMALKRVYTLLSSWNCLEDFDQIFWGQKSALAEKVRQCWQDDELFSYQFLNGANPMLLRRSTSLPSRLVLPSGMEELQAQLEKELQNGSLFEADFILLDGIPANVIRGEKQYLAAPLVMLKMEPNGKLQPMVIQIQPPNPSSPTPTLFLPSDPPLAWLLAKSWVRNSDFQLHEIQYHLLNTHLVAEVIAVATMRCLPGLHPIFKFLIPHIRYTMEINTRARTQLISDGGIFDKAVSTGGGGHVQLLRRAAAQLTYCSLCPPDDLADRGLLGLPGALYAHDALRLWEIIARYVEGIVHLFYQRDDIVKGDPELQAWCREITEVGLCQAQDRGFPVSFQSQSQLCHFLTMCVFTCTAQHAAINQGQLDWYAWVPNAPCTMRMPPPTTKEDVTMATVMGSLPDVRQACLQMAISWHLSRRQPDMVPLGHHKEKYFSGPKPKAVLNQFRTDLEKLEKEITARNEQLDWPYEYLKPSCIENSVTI
In words: Δ^12-lipoxygenase assay (conversion of 14C-arachidonic acid to 12-HETE, human platelet enzyme). Type of test: biochemical. As to conditions: 3-4 μM arachidonic acid. The procedure:
Δ^12 -lipoxygenase activity was measured by following the conversion of ^14 C-arachidonic acid (AA) to ^14 C-12-hydroxy-5,8,10,14-eicosatetraenoic acid (12-HETE) using human platelets as the enzyme source. Washed human platelets from approximately 2000 ml of blood were suspended in 50 ml of phosphate buffered saline (PBS) and then lysed by freezing and thawing (3 times). The platelet lysate was homogenized using a glass-teflon homogenizer and then particulate material was sedimented by centifugation at 100,000×g for 1 hr and the sediment was discarded. The supernatant was made 50% by weight saturated with respect to (NH4)2 SO4 by adding solid ammonium sulfate. The resultant suspension was allowed to stand at 0° overnight. The precipitate was collected by centrifugation and was dissolved in approximately 25 ml of PBS. This solution was the enzyme solution utilized to catalyze the conversion of AA to 12 HETE.
In order to test the compounds, separate incubation tubes for each of the compounds and for concentrations of these compounds were prepared in an ice bath. These tubes each contained 140 μl of PBS containing 1.78 mM glutathione, 10 μl of test drug in ethanol, 50 μl of platelet supernatant, and 50 μl of ^14 C-AA. […] Incubation tubes were prepared containing only buffer ethanol and ^14 c-AA were included as substrate controls. The final concentration of AA added as its ammonium salt in PBS, in each of the incubation tubes 3-4 μM. Sufficient enzyme solution prepared as above was added so that, under the conditions of the assay, approximately 80-90% by weight of the ^14 C-AA was converted to 12-HETE, as determined by prior controls. The tubes were incubated at 37° for 2 min, the reaction was stopped by the addition, while mixing on a mixer, of 2 ml of diethyl ether and 50 μl of 1M citric acid. The ether in the presence of citric acid extracted 12-HETE and AA from enzyme in the reaction medium in each of the samples. The ether extract was evaporated to dryness under nitrogen and then the residue was dissolved in 50 μl of chloroform:methanol (2:1 parts by volume). The dissolved residue containing 12-HETE and AA was applied, as rapidly as possible, to a glass fiber sheet impregnated with silica gel and then the chromatogram was developed using isooctane:methylethylketone:acetic acid (100:9:1 parts by volume) as solvent. Radioactive products and unconverted ^14 C-AA were located using a thin-layer chromatography scanner. The appropriate regions of the chromatogram were cut out, then the radioactivity quantitated using a liquid scintillation counter. The amount of ^14 C-AA converted to product is used as a measure of Δ^12 -lipoxygenase activity.
The mean percent inhibition was calculated by multiplying 100 times the following fraction: [formula] at each concentration of the various test drugs was calculated.

Test [3] has as its target T2, Prostaglandin endoperoxide synthase (Ovis aries, UniProt P05979).
T2 construct: sheep seminal vesicular gland microsomes (SSVM) as the enzyme source; from tissue; host or cells: sheep seminal vesicular gland microsomes, acetone powder
T2 sequence (P05979 25-600): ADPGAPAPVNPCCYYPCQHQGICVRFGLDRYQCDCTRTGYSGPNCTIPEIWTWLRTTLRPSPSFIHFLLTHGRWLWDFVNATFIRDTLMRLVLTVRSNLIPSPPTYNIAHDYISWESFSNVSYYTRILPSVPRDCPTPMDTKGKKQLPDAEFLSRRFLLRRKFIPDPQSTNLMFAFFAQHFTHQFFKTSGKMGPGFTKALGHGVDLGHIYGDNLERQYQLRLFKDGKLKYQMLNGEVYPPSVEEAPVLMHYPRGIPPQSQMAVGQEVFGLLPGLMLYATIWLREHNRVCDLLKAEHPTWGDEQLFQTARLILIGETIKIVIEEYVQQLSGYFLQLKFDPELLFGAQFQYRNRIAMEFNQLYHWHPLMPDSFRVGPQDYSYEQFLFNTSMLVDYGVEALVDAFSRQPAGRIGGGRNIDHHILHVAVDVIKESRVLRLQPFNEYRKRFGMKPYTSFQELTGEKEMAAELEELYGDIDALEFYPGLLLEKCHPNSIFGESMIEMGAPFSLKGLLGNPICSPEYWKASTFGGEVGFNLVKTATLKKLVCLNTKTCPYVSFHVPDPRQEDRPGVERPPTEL
Description: Prostaglandin endoperoxide synthase (PES) assay, oxygen uptake with sheep seminal vesicular gland microsomes. Type of test: biochemical. As to conditions: 33 μM arachidonic acid, pH 8.5. The procedure:
The activity of PES was measured polarigraphically by following the disappearance of dissolved O2 from incubation mixtures containing arachidonic acid (AA) as substrate and sheep seminal vesicular gland microsomes (SSVM) as the enzyme source. Fifty mg of an acetone powder of SSVM were suspended, using a glass teflon homogenizer, in 1 ml of 0.1M tris. HCl (pH, 8.5) containing 0.67 mM phenol. This suspension of SSVM was incubated at room temperature in the presence of phenol to maximumly activate the PES and then the suspension was kept at 0°. Samples in a separate reaction vessel were each prepared by adding tris-phenol buffer (2.8 ml), 0.05 ml of the SSVM suspension, and a maximum of 0.12 ml of ethanol containing various concentrations of the test drug. […] Reaction vessels were then allowed to reach temperature equilibrium. An oxygen electrode is inserted into the vessel and then 24 μl of 4.1 mM AA are injected into the sealed vessel through a port on the side of the electrode. The final concentration of AA is 33 μM. Oxygen uptake is recorded and the initial rate of oxygen uptake used as a measure of PES activity. Each of the test compounds were tested initially at a high concentration (1 mM) and then, if required, dilutions are made. The mean percent inhibition was obtained for each concentration of the various test drugs by expressing as a percent the number obtained by dividing the difference of the oxygen uptake of the test sample by the oxygen uptake of the control. The concentration of test drug which inhibits the synthesis of PES by 50% (IC50) which is given in the following table was determined for each test drug from a plot of mean percent inhibition verses drug concentration. The difference of the oxygen uptake of test sample was obtained by subtracting from the oxygen uptake of the control, the oxygen uptake of the test sample.

Test [4] deals with SRS-A synthesis (Rat Peritoneal Cells). As to conditions: statement on standard; cited from earlier work.
Test [5] addresses T1, Δ^12-lipoxygenase (Human Platelet). As to conditions: statement on standard; cited from earlier work.
Test [6] deals with T2, Prostaglandin endoperoxide synthase. As to conditions: statement on standard; cited from earlier work.

A value given as a limit tells only on which side of the number the result lay.

Broadly, the IC50 is the concentration that gives 50% inhibition. The low end stands for inhibition by little substance, the high end for a need for much substance. By inhibition is commonly meant the percentage by which the read-out fell short of the control. As for `CCCCC/C=C\CCCCC#CCC#CCCC(F)C1=NC(C)(C)CO1` (stereo not drawn) [Compound 8, 2-(1-fluorononadec-13(Z)-en-4,7-diynyl)-4,5-dihydro-4,4-dimethyloxazole], in test [1], the IC50 is below 10 µM and the inhibition at 10 µM came out at 88 ± 6%. Also, the IC50 in test [2] is above 100 µM.

In test [1], `CCCCC/C=C\C/C=C\CC#CCC#CCCCC(=O)OC` [Compound 4, (Z,Z)-11,14-eicosadien-5,8-diynoic acid methyl ester] gave a half-maximal inhibitory concentration (IC50) below 10 µM and an inhibition at 10 µM of 85 ± 8%. Further, the IC50 in test [2] was 10 to 100 µM.

As to `CCCCCC#CCC#CCC#CCC#CCCCC(=O)O` [5,8,11,14-Eicosatetraynoic Acid, reference compound], the half-inhibitory concentration (IC50) in test [1] is 3 to 4 µM; in test [3], 5 µM. Also, the inhibition at 10 µM in test [1] amounted to 100%. The “inhibition of SRS-A synthesis (in words)” value in test [4] is “standard potent inhibitor of SRS-A synthesis”. In addition, the “inhibition of Δ^12-lipoxygenase (in words)” value in test [5] is reported as “potent inhibitor”. Also, the “inhibition of prostaglandin endoperoxide synthase (in words)” value in test [6] is listed as “potent inhibitor”.

On to `CCCCC/C=C\CCCCC#CCC#CCCCC1=NC(C)(C)CO1` [Compound 7, 2[(Z)-13-nonadecen-4,7-diynyl]-4,5-dihydro-4,4-dimethyloxazole], for which, in test [1], the IC50 is below 10 µM and the inhibition at 10 µM came to 86 ± 8%. Besides, the IC50 in test [2] was around 100 µM.
